These results are taken from paper PMC4235314 (Scientific Reports, 2014).

Series [1] has as its target T1, LmrR (Lactococcus cremoris, UniProt A2RI36).
T1 construct: gene llmg_0323; full-length, synthetic codon-optimised gene in pET28b (NcoI/XhoI), C-terminal His6-tag kept, E. coli BL21(DE3), homodimer
Kind of series: SPR (Biacore […], LmrR on NTA chip), kinetic […] Langmuir fit. Format: binding. Conditions: pH 7.4, 25 C, 150 mM NaCl, 50 uM EDTA, 0.005% P-20; dimeric central pore, 1:1 stoichiometry. (In general: Surface plasmon resonance follows binding to a sensor surface in real time, without labels.)

The target of series [2] is T1, LmrR. Nature of the series: SPR (Biacore […], LmrR on NTA chip), equilibrium one-site fit. The format is binding. Conditions: pH 7.4, 25 C, 150 mM NaCl, 50 uM EDTA, 0.005% P-20; dimeric central pore, 1:1 stoichiometry.
In series [3] the target is T2, LmrR (Lactococcus lactis, UniProt A2RI36 1-116).
T2 sequence: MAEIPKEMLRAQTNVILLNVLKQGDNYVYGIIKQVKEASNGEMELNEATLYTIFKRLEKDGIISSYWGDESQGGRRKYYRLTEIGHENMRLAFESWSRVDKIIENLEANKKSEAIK
Kind of series: NMR; 1H-13C HMQC titration, Ile d1 CSPs; low-field shift of Ile-62 d1 13C; SPR: 10 mM HEPES pH 7.4, 150 mM NaCl, 50 uM EDTA, 0.005% surfactant P-20, 25 C (described for compounds); NMR: 10 mM NaPi pH 6.8, 100 mM NaCl, 298 K.

For series [4], the target named is T2, LmrR. Nature of the series: SPR; LmrR immobilised on NTA chip; 1:1 Langmuir global fit; text states only 'μM affinity', number in figure; SPR: 10 mM HEPES pH 7.4, 150 mM NaCl, 50 uM EDTA, 0.005% surfactant P-20, 25 C (described for compounds); NMR: 10 mM NaPi pH 6.8, 100 mM NaCl, 298 K.

With `CCOc1ccc(-c2nc3ccc(-c4nc5ccc(N6CCN(C)CC6)cc5[nH]4)cc3[nH]2)cc1` [Hoechst 33342], the KD result at LmrR [1] is reported as “SPR analyses indicated that these compounds bind to LmrR with various affinities”.

With `COc1cccc2c1C(=O)c1c(O)c3c(c(O)c1C2=O)C[C@@](O)(C(C)=O)C[C@@H]3O[C@H]1C[C@H](N)[C@H](O)[C@H](C)O1` [daunomycin], the KD entry at LmrR [2] is “The KD values for H33342 and daunomycin were consistent with those previously reported”. For `CC[n+]1c(-c2ccccc2)c2cc(N)ccc2c2ccc(N)cc21` [ethidium], the KD entry at LmrR [2] is listed as “SPR analyses indicated that these compounds bind to LmrR with various affinities”. `CCN=c1cc2oc3cc(NCC)c(C)cc3c(-c3ccccc3C(=O)OCC)c-2cc1C` [rhodamine 6G]: the KD result at LmrR [2] is listed as “SPR analyses indicated that these compounds bind to LmrR with various affinities”.

B1: lmrCD oligo (33-bp promoter fragment) (dsDNA)
DNA 1: CAATTTAATGTAAAGTAGTTTACATTATTTAAC
DNA 2: GTTAAATAATGTAAACTACTTTACATTAAATTG
With B1, the binding result with LmrR [3] and in the series with LmrR [4] was “binds” each time.
